According to publication PMC10041525, “New Dual Inhibitors of Bacterial Topoisomerases with Broad-Spectrum Antibacterial Activity and In Vivo Efficacy against Vancomycin-Intermediate Staphylococcus aureus” (Journal of Medicinal Chemistry, 2023):
Values after ≈ are worked out from the molar mass of the structure shown. Values joined by “and” are separate entries in the source; they are usually repeats but may differ in a detail not shown here. Equal values may be shown once. Read-outs that look alike come from different tables or passages of the source.

Columns and labels:
E. faecium (n = 13) = test: MIC broth microdilution at IHMA Europe; assay type: cell-based; conditions: for MIC: Enterococcus faecium, read-out: MIC
[1] = system: Haemophilus influenzae (n = 14); test: MIC broth microdilution at IHMA Europe; assay type: cell-based, H. influenzae; conditions: for MIC: Haemophilus influenzae, read-out: MIC
[2] = system: 100 A. baumannii strains (50 MDR, 50 non-MDR); test: MIC broth microdilution at IHMA Europe, panel of 100 strains; assay type: cell-based; conditions: Acinetobacter baumannii

For Cc1[nH]c(C(=O)Nc2nc3c(N4CCOCC4)cc(C(=O)O)cc3s2)c(Cl)c1Cl [7a, 2-(3,4-Dichloro-5-methyl-1H-pyrrole-2-carboxamido)-4-morpholinobenzo[d]thiazole-6-carboxylic Acid], the “Cumulative % at MIC” value (E. faecium (n = 13)) was 61.5% and 100.0%, the “No. of isolates at MIC” value (E. faecium (n = 13)) was 8 and 5 and the MIC (E. faecium (n = 13); E. faecium IHMA N° 1764866) was 0.06 µg/mL (≈ 0.132 µM). The MIC (E. faecium (n = 13); E. faecium IHMA N° 1765436) was 0.06 µg/mL (≈ 0.132 µM), the MIC (E. faecium (n = 13); E. faecium IHMA N° 1765746) was 0.06 µg/mL (≈ 0.132 µM) and the MIC (E. faecium (n = 13); E. faecium IHMA N° 1893573) was 0.06 µg/mL (≈ 0.132 µM). For the same compound, the MIC (E. faecium (n = 13); E. faecium IHMA N° 1893846) was 0.12 µg/mL (≈ 0.264 µM), the MIC (E. faecium (n = 13); E. faecium IHMA N° 1893942) was 0.12 µg/mL (≈ 0.264 µM) and the MIC (E. faecium (n = 13); E. faecium IHMA N° 1894055) was 0.12 µg/mL (≈ 0.264 µM). It also gave an MIC (E. faecium (n = 13); E. faecium IHMA N° 1897027) of 0.12 µg/mL (≈ 0.264 µM), an MIC (E. faecium (n = 13); E. faecium IHMA N° 1897101) of 0.06 µg/mL (≈ 0.132 µM) and an MIC (E. faecium (n = 13); E. faecium IHMA N° 1904592) of 0.06 µg/mL (≈ 0.132 µM). The MIC (E. faecium (n = 13); E. faecium IHMA N° 2075051) was 0.12 µg/mL (≈ 0.264 µM), the MIC (E. faecium (n = 13); E. faecium IHMA N° 2077718) was 0.06 µg/mL (≈ 0.132 µM) and the MIC (E. faecium (n = 13); E. faecium IHMA N° 2083787) was 0.06 µg/mL (≈ 0.132 µM). The “MIC, all isolates” value (E. faecium (n = 13); n = 13) was no more than 0.12 µg/mL, the “No. of isolates at MIC” value [1] was 3 and 6 and 4 and the MIC ([1]; H. influenzae IHMA N° 1227715) was 0.12 µg/mL (≈ 0.264 µM). The MIC ([1]; H. influenzae IHMA N° 1241620) was 0.25 µg/mL (≈ 0.549 µM), the MIC ([1]; H. influenzae IHMA N° 1244149) was 0.5 µg/mL (≈ 1.1 µM) and the MIC ([1]; H. influenzae IHMA N° 1249803) was 0.12 µg/mL (≈ 0.264 µM). It also gave an MIC ([1]; H. influenzae IHMA N° 1254355) of 0.25 µg/mL (≈ 0.549 µM), an MIC ([1]; H. influenzae IHMA N° 1258580) of 0.5 µg/mL (≈ 1.1 µM) and an MIC ([1]; H. influenzae IHMA N° 1262734) of 0.25 µg/mL (≈ 0.549 µM). For the same compound, the MIC ([1]; H. influenzae IHMA N° 1272723) was 0.25 µg/mL (≈ 0.549 µM), the MIC ([1]; H. influenzae IHMA N° 1286846) was 0.5 µg/mL (≈ 1.1 µM) and the MIC ([1]; H. influenzae IHMA N° 1337530) was 0.12 µg/mL (≈ 0.264 µM). The MIC ([1]; H. influenzae IHMA N° 1440085) was 0.5 µg/mL (≈ 1.1 µM), the MIC ([1]; H. influenzae IHMA N° 1479509) was 1 µg/mL (≈ 2.2 µM) and the MIC ([1]; H. influenzae IHMA N° 1952952) was 0.25 µg/mL (≈ 0.549 µM). For the same compound, the MIC ([1]; H. influenzae IHMA N° 2047461) was 0.25 µg/mL (≈ 0.549 µM), the “Cumulative % at MIC” value ([1]; MIC 1 µg/mL) was 100.0% and the “No. of isolates at MIC” value ([1]; MIC 1 µg/mL) was 1. The “MIC, all isolates” value ([1]; n = 14) was no more than 1 µg/mL, the MIC ([2]; A. baumannii IHMA 1769910, Israel 2018, Non-MDR) was 16 µg/mL (≈ 35.1 µM) and the MIC ([2]; A. baumannii IHMA 1795669, Tunisia 2018, Non-MDR) was 1 µg/mL (≈ 2.2 µM). The MIC ([2]; A. baumannii IHMA 1814276, Lebanon 2018, MDR) was 8 µg/mL (≈ 17.6 µM), the MIC ([2]; A. baumannii IHMA 1815198, Kuwait 2018, MDR) was 8 µg/mL (≈ 17.6 µM) and the MIC ([2]; A. baumannii IHMA 1821468, South Africa 2018, Non-MDR) was 8 µg/mL (≈ 17.6 µM). For the same compound, the MIC ([2]; A. baumannii IHMA 1829500, Georgia 2018, Non-MDR) was 8 µg/mL (≈ 17.6 µM), the MIC ([2]; A. baumannii IHMA 1830924, United Kingdom 2018, Non-MDR) was 32 µg/mL (≈ 70.3 µM) and the MIC ([2]; A. baumannii IHMA 1849819, Kuwait 2018, MDR) was 16 µg/mL (≈ 35.1 µM). For the same compound, the MIC ([2]; A. baumannii IHMA 1849829, Kuwait 2018, Non-MDR) was 8 µg/mL (≈ 17.6 µM), the MIC ([2]; A. baumannii IHMA 1857118, Slovenia 2018, Non-MDR) was 16 µg/mL (≈ 35.1 µM) and the MIC ([2]; A. baumannii IHMA 1863631, France 2018, Non-MDR) was 8 µg/mL (≈ 17.6 µM). For the same compound, the MIC ([2]; A. baumannii IHMA 1870054, United States 2018, Non-MDR) was 8 µg/mL (≈ 17.6 µM), the MIC ([2]; A. baumannii IHMA 1884428, Italy 2018, Non-MDR) was 8 µg/mL (≈ 17.6 µM) and the MIC ([2]; A. baumannii IHMA 1900538, Turkey 2018, Non-MDR) was 8 µg/mL (≈ 17.6 µM). For the same compound, the MIC ([2]; A. baumannii IHMA 1957343, Portugal 2019, Non-MDR) was 8 µg/mL (≈ 17.6 µM), the MIC ([2]; A. baumannii IHMA 1963732, Turkey 2019, MDR) was 8 µg/mL (≈ 17.6 µM) and the MIC ([2]; A. baumannii IHMA 1977077, Kuwait 2019, Non-MDR) was 8 µg/mL (≈ 17.6 µM). For the same compound, the MIC ([2]; A. baumannii IHMA 1983151, Greece 2019, MDR) was 8 µg/mL (≈ 17.6 µM), the MIC ([2]; A. baumannii IHMA 1984665, Lithuania 2019, MDR) was 8 µg/mL (≈ 17.6 µM) and the MIC ([2]; A. baumannii IHMA 1986678, Turkey 2019, Non-MDR) was 8 µg/mL (≈ 17.6 µM). For the same compound, the MIC ([2]; A. baumannii IHMA 1986738, Turkey 2019, MDR) was 8 µg/mL (≈ 17.6 µM), the MIC ([2]; A. baumannii IHMA 1995161, Czech Republic 2019, Non-MDR) was 8 µg/mL (≈ 17.6 µM) and the MIC ([2]; A. baumannii IHMA 1997936, Morocco 2019, Non-MDR) was 8 µg/mL (≈ 17.6 µM). For the same compound, the MIC ([2]; A. baumannii IHMA 2003279, Turkey 2019, MDR) was 8 µg/mL (≈ 17.6 µM), the MIC ([2]; A. baumannii IHMA 2014931, South Africa 2019, Non-MDR) was 16 µg/mL (≈ 35.1 µM) and the MIC ([2]; A. baumannii IHMA 2019315, Romania 2019, Non-MDR) was 8 µg/mL (≈ 17.6 µM). It also gave an MIC ([2]; A. baumannii IHMA 2020360, Croatia 2019, MDR) of 8 µg/mL (≈ 17.6 µM), an MIC ([2]; A. baumannii IHMA 2031524, Greece 2019, MDR) of 8 µg/mL (≈ 17.6 µM) and an MIC ([2]; A. baumannii IHMA 2034657, Tunisia 2019, Non-MDR) of 16 µg/mL (≈ 35.1 µM). The MIC ([2]; A. baumannii IHMA 2035089, Serbia 2019, MDR) was 8 µg/mL (≈ 17.6 µM), the MIC ([2]; A. baumannii IHMA 2035134, Serbia 2019, Non-MDR) was 8 µg/mL (≈ 17.6 µM) and the MIC ([2]; A. baumannii IHMA 2038976, Hungary 2019, MDR) was 8 µg/mL (≈ 17.6 µM).
